For test [1], the system named is influenza A/WSN/33 (WSN). The test is described as follows: microbe, parasite or virus in culture. It counts as cell-based, influenza A virus H1N1. The note with it: read-out: IC50 (nM 1) WSN.
Test [2] has as its system avian influenza A/turkey/MN/833/80 (TKY). The test is described as follows: microbe, parasite or virus in culture. The test is classed as cell-based, influenza A virus H4N2.
Test [3] concerns human influenza A/Wuhan/359/95 (Wuhan). The test is described as follows: microbe, parasite or virus in culture. The test is classed as cell-based, influenza A virus H3N2.
Test [4] deals with A/Nanchang/933/95 (Nanchang) virus. Set-up: species or system ferrets. Conditions: in vivo.
The target of test [5] is viral NA of TKY Drug-free p23 (DF23) (Influenza A virus (A/turkey/Minnesota/833/1980(H4N2)), UniProt Q20NP0). The test is classed as biochemical. Conditions: read-out: Ki (nM, based on ZA) Drug-free p23.
viral NA of TKY Drug-free p23 (DF23) (Influenza A virus (A/turkey/Minnesota/833/1980(H4N2)), UniProt Q20NP0), sequence (Q20NP0 whole entry, looked up): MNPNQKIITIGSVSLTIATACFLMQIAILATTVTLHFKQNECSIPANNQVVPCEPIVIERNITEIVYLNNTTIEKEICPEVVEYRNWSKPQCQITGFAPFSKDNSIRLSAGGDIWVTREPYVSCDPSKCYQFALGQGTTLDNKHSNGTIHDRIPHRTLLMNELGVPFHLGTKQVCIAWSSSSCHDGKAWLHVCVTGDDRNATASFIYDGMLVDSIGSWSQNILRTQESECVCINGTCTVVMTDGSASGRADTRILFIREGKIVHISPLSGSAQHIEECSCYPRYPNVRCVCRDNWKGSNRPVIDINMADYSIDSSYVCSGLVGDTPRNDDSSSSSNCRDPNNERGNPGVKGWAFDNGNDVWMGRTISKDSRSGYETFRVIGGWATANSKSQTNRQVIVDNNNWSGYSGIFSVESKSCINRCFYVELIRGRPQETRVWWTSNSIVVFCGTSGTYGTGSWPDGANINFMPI
Test [6] concerns WSN strain. The arrangement: species or system Balb/C mice. Conditions: mouse, in vivo.
Test [7] deals with TKY Wild-type. It counts as cell-based, influenza A virus H4N2. The note with it: read-out: IC50 (nM, based on ZA) Wild-type.
Test [8] has as its target active site of NA. The note with it: read-out: affinity constant for the active site of NA; cited from earlier work.
The subject of test [9] is avian strain A/Turkey/MN/80 (TKY). The test is classed as cell-based, influenza A virus H4N2.
Test [10] concerns the target viral NA of TKY Wild-type (Influenza A virus (A/turkey/Minnesota/833/1980(H4N2)), UniProt Q20NP0). The test is classed as biochemical. Conditions: read-out: Ki (nM, based on ZA) Wild-type.
Test [11] has as its system TKY Drug-free p23 (DF23). The test is classed as cell-based, influenza A virus H4N2. The note with it: read-out: IC50 (nM, based on ZA) Drug-free p23.
The subject of test [12] is TKY virus. It counts as cell-based, influenza A virus H4N2. Conditions: t=15 min.

Where two headings read alike, the source gives them in different places.

viral NA of TKY Wild-type (Influenza A virus (A/turkey/Minnesota/833/1980(H4N2)), UniProt Q20NP0), sequence (Q20NP0 whole entry, looked up): as above

With `CC(=O)NC1C(NC(=N)N)C=C(C(=O)O)OC1C(OC(=O)NCCOCCN)C(O)CO` (stereo not shown) [compound 3, 3-Acetamido-2-(1-(((2-(2-aminoethoxy)ethyl)carbamoyl)oxy)-2,3-dihydroxypropyl)-4-guanidino-3,4-dihydro-2H-pyran-6-carboxylic acid], the IC50 in test [1] was 57000 nM; in [2] (read-out: IC50 (nM 1) TKY), 1.4e+06 nM; in [3] (read-out: IC50 (nM 1) Wuhan) it was 1.3e+06 nM.

In general, Ki refers to the equilibrium dissociation constant of an inhibitor or competing ligand from its target. As to `CC(=O)N[C@H]1[C@H]([C@H](O)[C@H](O)CO)OC(C(=O)O)=C[C@@H]1N=C(N)N` [compound 1, zanamivir], the “reduction in nasal wash viral titer compared to PBS controls, day 4 p.i.” value in [4] is “did not”. The “reduction in nasal wash viral titer compared to PBS controls, day 6 p.i.” value in test [4] is reported as “did not”. Moreover, in [4], the “reduction in nasal wash viral titer compared to PBS-treated group, day 2 p.i.” value is 38 fold. In addition, the values for the inhibition constant Ki in test [5] and in [10] were 8.8 ± 5.6 nM and 5.3 ± 0.4 nM, respectively. Moreover, the IC50 was 20000 nM in test [2] (H4N2, read-out: IC50 (nM Sugar) Turkey/WT (H4N2)); 56 ± 8 nM in test [7]; 20000 nM in test [3] (H3N2, read-out: IC50 (nM Sugar) Wuhan (H3N2)); 38 ± 31 nM in [11]. In addition, the “drop of viral titers in lung homogenates vs untreated mice” value in test [6] is recorded as 20 fold. Besides, the Kd in test [8] was 0.0001 to 0.001 µM. Besides, the “change of potency (IC50), early and late vs late only” value in test [9] is reported as “remained the same”.

Turning to `NC12CC3CC(CC(C3)C1)C2` [amantadine], the “viral particles inside the cells” value in [12] is listed as “accumulation of viral particles inside the cells”.

As for `CC(=O)NC1C(NC(=N)N)C=C(C(=O)O)OC1C(OC(=O)Nc1ccc(CN)cc1)C(O)CO` (stereo not shown) [compound 4, 3-Acetamido-2-(1-(((4-(aminomethyl)phenyl)carbamoyl)oxy)-2,3-dihydroxypropyl)-4-guanidino-3,4-dihydro-2H-pyran-6-carboxylic acid], the IC50 in [1] amounted to 76000 nM; in test [2] (read-out: IC50 (nM 1) TKY), 2.3e+06 nM; in [3] (read-out: IC50 (nM 1) Wuhan), 840000 nM.

The record behind these values is patent publication US20130280204A1 (priority 2007, published 2013).
